# Measurements reported in US6646137B1, “Non-peptide GnRH agents” (priority 1998, dated 2003).
# Like-named read-outs stand apart in the source and are kept apart here.
# Molecular target: T1, human GnRH receptor (Homo sapiens, UniProt P30968)
# T1 construct: The cDNA for the human GnRH receptor is cloned into the plasmid expression vector, pcDNA 3; expressed in transfected cells; host or cells: HEK 293 cells, stably transfected (pcDNA 3); membrane preparation
# T1 sequence (P30968 1-328): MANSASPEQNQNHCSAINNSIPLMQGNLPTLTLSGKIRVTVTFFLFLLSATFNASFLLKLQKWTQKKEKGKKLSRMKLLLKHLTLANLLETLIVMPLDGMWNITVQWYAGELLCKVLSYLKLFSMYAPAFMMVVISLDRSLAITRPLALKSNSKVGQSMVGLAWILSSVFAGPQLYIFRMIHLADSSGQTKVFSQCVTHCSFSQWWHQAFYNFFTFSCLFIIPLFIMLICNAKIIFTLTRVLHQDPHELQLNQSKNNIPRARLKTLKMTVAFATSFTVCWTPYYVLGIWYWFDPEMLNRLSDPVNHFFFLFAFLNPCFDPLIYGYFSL
# Test: GnRH receptor competitive radioligand binding assay (125I-GnRH-A, HEK 293 cell membranes)
# Settings: compound at 10 μM
# Description: The cDNA for the human GnRH receptor is cloned into the plasmid expression vector, pcDNA 3 (In Vitrogen), and stably transfected in HEK 293 cells (a cell line developed by Dr. Stuart Sealfon, Mount Sinai Medical School, New York, N.Y.).
# The human GnRH receptor (hGnRH) is cloned into pcDNA 3 (In Vitrogen), which provides high-level expression and a neomycin resistance marker. Lipofectamine (GIBCO BRL) is used to transfect HEK 293 cells with plasmid DNA. This method involves mixing the plasmid and reagent in serum-free medium, allowing DNA-liposome complexes to form, and overlaying cells with this solution. The HEK 293 cells are plated (seeded) on a 10-cm tissue culture dish at a density of 3×10^6 cells/dish the day before transfection. For each plate, 8 μg DNA plus 0.8 mL serum-free medium is mixed with 48 μL lipofectamine plus 0.8 mL serum-free medium, followed by incubation for 30 minutes at room temperature to allow DNA-liposome complexes to form. Serum-free medium is added to give a final volume of 6 mL/plate. The cells are rinsed twice with serum-free medium and overlayed with the DNA-liposome mixture. Five hours after transfection, an equal volume (6 mL) of medium containing 20% FBS (fetal bovine serum) is added. The cells are fed with fresh complete medium 18-24 hours after transfection. The cells are split 72 hours following transfection, at densities of 1:10 and 1:20. Stable tranformants are selected for by growth of the cells in antibiotic containing medium (G418, Sigma Chemical Company (also known as Geneticin)). Colonies are isolated and tested for receptor expression by radioligand binding and by measuring phosphoinositol turnover.
# HEK 293 cells stably transfected with human GnRH receptors as described above are grown in MEM (minimal essential medium, available from Sigma Chemical Company) supplemented with 0.1% G418 (Sigma Chemical Company). Cells are homogenized in buffer A containing 50 mM Tris (pH 74.), 0.32M sucrose, 2 mM ethyleneglycol-bis(β-aminoethyl)-N,N,N′,N′-tetraacetic acid (EGTA), 1 mM phenylmethylsulfonyl fluoride (PMSF), 5 μg/mL aprotinen, 5 μg/mL Pepstatin A, and 1 μg/mL leupeptin. The homogenized cells are centrifuged at 4° C. at 20,000×g for 25 minutes, resuspended in buffer A, and recentrifuged at 4° C. at 20,000×g for an additional 25 minutes. Total membrane protein is determined with a BCA kit (Pierce, Rockford, Ill.). Membranes are stored at −70° C. at a final membrane protein concentration of 5 mg/mL.
# The radioiodinated agonist analog of GnRH, [des-Gly^10, D-Ala^8]GnRH ethylamide (GnRH-A), is used as the labeled ligand. One μg of GnRH-A diluted in 0.1M acetic acid is added to an lodogen®-coated borosilicate glass tube pierce) containing 35 μL of 0.05M phosphate buffer (pH 7.4-7.6) and 1 mCi of Na[^125I]. The reaction mixture is vortexed and incubated for 1 minute at room temperature. After one minute, the mixture is vortexed again and allowed to incubate for an additional minute. Two mL of 0.5M acetic acid/1% BSA is added to the reaction tube, and the mixture is added to a C18 Sep-Pak cartridge. The cartridge is washed with subsequent washes of 5 mL H2O and 5 mL 0.5M acetic acid, and then eluted with 5×1 mL of 60% CH3CN/40% 0.5M acetic acid. The eluant is diluted with 3×volume of HPLC buffer A (0.1% TFA in H2O) and loaded onto a C18 column. The iodinated product is eluted over 20-25 minutes with a gradient of 25-100% CH3CN containing 0.1% TFA. The radioactive fractions (750 μL/fraction) are collected into clean polypropylene tubes containing 10 μL of 10% BSA. Fractions are assessed for biological activity by radioligand binding. Active fractions are utilized to screen the compounds for competitive binding assays.
# HEK 293 cell membranes stably expressing hGnRHR (human GnRH receptors) are diluted to 0.5-1.0 mg/mL with assay buffer containing 50 mM HEPES (pH 7.4), 1 mM ethylenediarninetetraacetic acid (EDTA), 2.5 mM MgCl2, and 0.1% BSA. […]
# [1] = average of 1st and 2nd test, read-out: Average % Remaining (percent of specific binding remaining)
# [2] = crude compounds, 125I-GnRH-A, lower value = higher inhibition, read-out: % Remaining 1st Test (percent of specific binding remaining)
# [3] = crude compounds, 125I-GnRH-A, lower value = higher inhibition, read-out: % Remaining 2nd Test (percent of specific binding remaining)
Structure (SMILES),remaining activity at 10 µM [1] [%],remaining activity at 10 µM [2] [%],remaining activity at 10 µM [3] [%]
N=C(N)NCCCCN(Cc1ccc(OCc2ccccc2)c(OCc2ccccc2)c1)C(=O)c1cccc2ccccc12 [Compound 34],51,45,57
CC(=O)N(CCCCNC(=N)N)Cc1ccc(OCc2ccccc2)c(OCc2ccccc2)c1 [Compound 35],52,50,54
CN(C)CCCOc1ccc(CN(Cc2cccc(CNC(=N)N)c2)C(=O)c2ccc3ccccc3c2)cc1 [Compound 36],58,56,59
N=C(N)NCc1cccc(CN(CC23CC=CCC2C2CC=CCC2O3)C(=O)C2CCCCC2)c1 (stereo not drawn) [Compound 37],60,59,61
N=C(N)NCc1cccc(CN(CC23CC=CCC2C2CC=CCC2O3)C(=O)c2cccc3ccccc23)c1 (stereo not drawn) [Compound 38],57,59,55
N=C(N)NCc1cccc(CN(CC23CC=CCC2C2CC=CCC2O3)C(=O)c2ccc3ccccc3c2)c1 (stereo not drawn) [Compound 39],46,46,45
Cc1cc2c(cc1CN(Cc1cccc(CNC(=N)N)c1)C(=O)c1ccco1)C(C)(C)CCC2(C)C [Compound 40],12,12,11
CC(C)(C)c1ccc(CN(CC2CCCC(CNC(=N)N)C2)C(=O)c2cccc3ccccc23)cc1 (stereo not drawn) [Compound 41],45,46,43
CC(C)(C)c1ccc(CN(CC2CCCC(CNC(=N)N)C2)C(=O)c2ccc3ccccc3c2)cc1 (stereo not drawn) [Compound 42],58,54,62
CC(C)(C)c1ccc(CN(CC2CCCC(CNC(=N)N)C2)C(=O)c2cccs2)cc1 (stereo not drawn) [Compound 43],50,47,53
CC(C)(C)c1ccc(CN(CC2CCCC(CNC(=N)N)C2)C(=O)c2ccccc2)cc1 (stereo not drawn) [Compound 44],60,58,62
CN(C)CCCOc1ccc(CN(CC2CCCC(CNC(=N)N)C2)C(=O)c2ccc3ccccc3c2)cc1 (stereo not drawn) [Compound 46],49,45,52
N=C(N)NCC1CCCC(CN(CC23CC=CCC2C2CC=CCC2O3)C(=O)c2cccc3ccccc23)C1 (stereo not drawn) [Compound 47],42,39,44
N=C(N)NCC1CCCC(CN(CC23CC=CCC2C2CC=CCC2O3)C(=O)c2ccc3ccccc3c2)C1 (stereo not drawn) [Compound 48],44,48,40
N=C(N)NCC1CCCC(CN(CC23CC=CCC2C2CC=CCC2O3)C(=O)c2ccc(Cl)nc2)C1 (stereo not drawn) [Compound 49],58,53,62
N=C(N)NCC1CCCC(CN(Cc2cnc3ccccc3c2)C(=O)c2cccc3ccccc23)C1 (stereo not drawn) [Compound 50],55,47,62
N=C(N)NCC1CCCC(CN(Cc2cnc3ccccc3c2)C(=O)c2ccc3ccccc3c2)C1 (stereo not drawn) [Compound 51],56,48,63
Cc1cc2c(cc1CN(CC1CCCC(CNC(=N)N)C1)C(=O)C1CCCCC1)C(C)(C)CCC2(C)C (stereo not drawn) [Compound 52],58,57,59
Cc1cc2c(cc1CN(CC1CCCC(CNC(=N)N)C1)C(=O)c1cccc3ccccc13)C(C)(C)CCC2(C)C (stereo not drawn) [Compound 53],51,46,55
Cc1cc2c(cc1CN(CC1CCCC(CNC(=N)N)C1)C(=O)c1ccc3ccccc3c1)C(C)(C)CCC2(C)C (stereo not drawn) [Compound 54],54,49,59
Cc1cc2c(cc1CN(CC1CCCC(CNC(=N)N)C1)C(=O)c1ccco1)C(C)(C)CCC2(C)C (stereo not drawn) [Compound 55],-2,-2,-1
Cc1cc2c(cc1CN(CC1CCCC(CNC(=N)N)C1)C(=O)c1ccccc1)C(C)(C)CCC2(C)C (stereo not drawn) [Compound 56],58,56,60
CC(=O)N(Cc1cc2c(cc1C)C(C)(C)CCC2(C)C)CC1CCCC(CNC(=N)N)C1 (stereo not drawn) [Compound 57],55,47,63
Cc1cc2c(cc1CN(CC1CCCC(CNC(=N)N)C1)C(=O)c1ccc(Cl)nc1)C(C)(C)CCC2(C)C (stereo not drawn) [Compound 58],59,57,60
N=C(N)NCC1CCCC(CN(Cc2ccc(OCc3ccccc3)c(OCc3ccccc3)c2)C(=O)C2CCCCC2)C1 (stereo not drawn) [Compound 59],59,57,60
N=C(N)NCC1CCCC(CN(Cc2ccc(OCc3ccccc3)c(OCc3ccccc3)c2)C(=O)c2ccccc2)C1 (stereo not drawn) [Compound 62],52,49,55
CC(=O)N(Cc1ccc(OCc2ccccc2)c(OCc2ccccc2)c1)CC1CCCC(CNC(=N)N)C1 (stereo not drawn) [Compound 63],48,49,47
N=C(N)NCC1CCCC(CN(Cc2ccc(OCc3ccccc3)c(OCc3ccccc3)c2)C(=O)c2ccc(Cl)nc2)C1 (stereo not drawn) [Compound 64],49,46,51
N=C(N)NCC1CCCC(CN(Cc2ccc3c(c2)OCCO3)C(=O)c2cccc3ccccc23)C1 (stereo not drawn) [Compound 65],55,50,59
N=C(N)NCC1CCCC(CN(Cc2ccc3c(c2)OCCO3)C(=O)c2ccc3ccccc3c2)C1 (stereo not drawn) [Compound 66],54,50,57
